Assay results reported in patent US20240350460A1, “APPLICATION OF HYDRAZIDE COMPOUND IN TUMOR TREATMENT” (NANJING SHIJIANG MEDICINE TECHNOLOGY CO., LTD, priority 2021, published 2024).

What was measured:
Type in all cases: cell-based
NCI-H82 = test: Cell viability (Promega CellTiter-Glo), inhibitory effect on tumor cell line; details: NCI-H82, human small cell lung cancer cell; sensitive group; 3-4 days of culture; n=3
Procedure: Cell viability was detected using the Promega CellTiter-Glo kit, cell viability was determined by directly measuring intracellular ATP content. […] The name, source and culture conditions of each tumor cell line were as follows: […] HTB-175) was cultured in 10% fetal bovine serum-containing RPMI1640 medium (+P/S).

G-401 = test: as above; details: G-401, human renal carcinoma Wilms cell; sensitive group; 3-4 days of culture; n=3
Procedure: (§1) Cell viability was detected using the Promega CellTiter-Glo kit, cell viability was determined by directly measuring intracellular ATP content. […] The name, source and culture conditions of each tumor cell line were as follows: Cell line G-401 (ATCC, No. CRL-1441) was cultured in 10% fetal bovine serum-containing McCoy's 5a medium (+P/S).

MDA-MB-453 = test: as above; details: Homo sapiens; MDA-MB-453, breast cancer cell; sensitive group; 3-4 days of culture; n=3
Procedure: as §1, with “MDA-MB-453” for “G-401”, “HTB-131)” for “CRL-1441)”, “Leibovitz's L-15” for “McCoy's 5a”

SW48 = test: as above; details: SW48, human colon adenocarcinoma cell; sensitive group; 3-4 days of culture; n=3
Procedure: as §1, with “SW48” for “G-401”, “CCL-231)” for “CRL-1441)”, “Leibovitz's L-15” for “McCoy's 5a”

WSU-DLCL2 = test: as above; details: WSUDLCL2; WSU-DLCL2, human diffuse large B-cell lymphoma; sensitive group; 3-4 days of culture; n=3
Procedure: Cell viability was detected using the Promega CellTiter-Glo kit, cell viability was determined by directly measuring intracellular ATP content. […] The name, source and culture conditions of each tumor cell line were as follows: Cell line WSU-DLCL2 (DSMZ, No. ACC-575) was cultured in 10% fetal bovine serum-containing RPMI1640 medium (+P/S).

CFPAC-1 = test: as above; details: CFPAC-1, human pancreatic cancer cell; insensitive group; 3-4 days of culture; n=3
Procedure: as §1, with “CFPAC-1” for “G-401”, “CRL-1918)” for “CRL-1441)”, “IMDM” for “McCoy's 5a”

GB-1 = test: as above; details: GB-1, human glioblastoma cell; insensitive group; 3-4 days of culture; n=3
SF126 = test: as above; details: SF-126; SF126, human glioblastoma multiforme cell; insensitive group; 3-4 days of culture; n=3
Procedure: Cell viability was detected using the Promega CellTiter-Glo kit, cell viability was determined by directly measuring intracellular ATP content. […] The name, source and culture conditions of each tumor cell line were as follows: Cell line SF126 (JCRB, No. IFO50286) was cultured in 10% fetal bovine serum-containing EMEM medium (+P/S).

[1] = test system: control NCI-H82 cell (NCI-H82 (Con)); test: Cell viability (Promega CellTiter-Glo) on control NCI-H82 cell; details: Homo sapiens; NCI-H82 transfected with empty virus vector without NNMT gene; n=3
From the text: (§2) The NNMT protein-overexpressing NCI-H82 cell (NCI-H82 (ov-NNMT)) was obtained by inserting the NNMT gene into NCI-H82 cell using a viral vector. The control NCI-H82 cell (NCI-H82 (Con)) was obtained by transfecting NCI-H82 cell with empty virus vector without carrying NNMT gene.
(§3) The expressing level of NNMT protein in control NCI-H82 cell (NCI-H82 (Con)) and NNMT protein-overexpressing NCI-H82 cell (NCI-H82 (ov-NNMT)) was detected using Western Blot assay (as shown in FIG. 7), it could be seen from FIG. 7 that the NNMT protein in NCI-H82 (ov-NNMT) cell was overexpressed compared with the expression level of NNMT protein in NCI-H82 (Con) cell.

[2] = test system: NNMT protein-overexpressing NCI-H82 cell (NCI-H82 (ov-NNMT)); test: Cell viability (Promega CellTiter-Glo) on NNMT protein-overexpressing NCI-H82 cell; details: Homo sapiens; NCI-H82 overexpressing NNMT protein (NNMT gene inserted by viral vector); n=3
From the text: as §2, §3

786-O = test: Cell viability (Promega CellTiter-Glo), inhibitory effect on tumor cell line; details: Homo sapiens, 786-0, clear cell renal cell adenocarcinoma cell, insensitive group, 3-4 days of culture, n=3
Procedure: Cell viability was detected using the Promega CellTiter-Glo kit, cell viability was determined by directly measuring intracellular ATP content. […] The name, source and culture conditions of each tumor cell line were as follows: Cell line 786-O (ATCC, No. CRL-1932) was cultured in 10% fetal bovine serum-containing RPMI1640 medium (+P/S).

SMILES | IC50 (NCI-H82) [µM] | IC50 (G-401) [µM] | IC50 (MDA-MB-453) [µM] | IC50 (SW48) [µM] | IC50 (WSU-DLCL2) [µM] | IC50 (CFPAC-1) [µM] | IC50 (GB-1) [µM] | IC50 (SF126) [µM] | IC50 [1] [µM] | IC50 [2] [µM] | IC50 (786-O) [µM]
O=C1OCCN1/N=C/c1ccc([N+](=O)[O-])o1 [Furazolidone, furazolidone] | 8.31 | 5.77 | 7.73 | 8.23 | 9.04 | > 50 | 38.4 | > 50 | 8.22 | 18.5 | 
O=C(N/N=C/c1ccc([N+](=O)[O-])o1)c1ccc(O)cc1 [Nifuroxazide, nifuroxazide] | 2.48 | 3.22 | 2.78 | 4.05 | 4.22 | > 50 | 20 | 16.4 | 2.41 | 5.01 | > 50
